# Measurements published in US6844347B1, “Substituted 4-amino-2aryl-pyrimidines, their production and use and pharmaceutical preparations containing same” (Aventis Pharma Deutschland GmbH, priority 1998, dated 2005).
# Test system: not given
# Test: not given
# Conditions: not given
row,Compound,melting point
1,"Cc1ccc(-c2nc(C(C)C)cc(N3CC[S+]([O-])CC3)n2)cc1 [Example 148, 6-Isopropyl-2-(4-methylphenyl)-4-(1-oxothiomorpholino)pyrimidine]",152 °C
2,"CC(C)c1cc(N2CCS(=O)(=O)CC2)nc(-c2ccc(Cl)cc2)n1 [Example 145, 2-(4-Chlorophenyl)-6-isopropyl-4-(1,1-dioxothiomorpholino)pyrimidine]",226 °C
3,"CC(C)c1cc([SH]2(=O)CCNC2)nc(-c2ccc(Cl)cc2)n1 [Example 146, 2-(4-Chlorophenyl)6-isopropyl-4-(1-oxo-1,3-thiazolidin-1-yl)pyrimidine]",128 °C
4,"CC(C)c1cc(N2CC[S+]([O-])CC2)nc(-c2cc(Cl)cc(Cl)c2)n1 [Example 149, 2-(3,5-dichlorophenyl)-6-isopropyl-4-(1-oxothiomorpholino)pyrimidine]",187 °C
5,"CC[S+]([O-])CCNc1cc(C(C)C)nc(-c2ccc(Cl)cc2)n1 (stereo not drawn) [Example 147, 2-(4-Chlorophenyl)-4-((2-ethylsulfinylethyl)amino)-6-isopropylpyrimidine]",103 °C

# Target: T1, soluble guanylate cyclase (sGC) (Bos taurus, UniProt P16068+P19687)
# T1 construct: The sGC employed had been isolated from bovine lung; from tissue; host or cells: bovine lung
# T1 sequence (P19687 1-691): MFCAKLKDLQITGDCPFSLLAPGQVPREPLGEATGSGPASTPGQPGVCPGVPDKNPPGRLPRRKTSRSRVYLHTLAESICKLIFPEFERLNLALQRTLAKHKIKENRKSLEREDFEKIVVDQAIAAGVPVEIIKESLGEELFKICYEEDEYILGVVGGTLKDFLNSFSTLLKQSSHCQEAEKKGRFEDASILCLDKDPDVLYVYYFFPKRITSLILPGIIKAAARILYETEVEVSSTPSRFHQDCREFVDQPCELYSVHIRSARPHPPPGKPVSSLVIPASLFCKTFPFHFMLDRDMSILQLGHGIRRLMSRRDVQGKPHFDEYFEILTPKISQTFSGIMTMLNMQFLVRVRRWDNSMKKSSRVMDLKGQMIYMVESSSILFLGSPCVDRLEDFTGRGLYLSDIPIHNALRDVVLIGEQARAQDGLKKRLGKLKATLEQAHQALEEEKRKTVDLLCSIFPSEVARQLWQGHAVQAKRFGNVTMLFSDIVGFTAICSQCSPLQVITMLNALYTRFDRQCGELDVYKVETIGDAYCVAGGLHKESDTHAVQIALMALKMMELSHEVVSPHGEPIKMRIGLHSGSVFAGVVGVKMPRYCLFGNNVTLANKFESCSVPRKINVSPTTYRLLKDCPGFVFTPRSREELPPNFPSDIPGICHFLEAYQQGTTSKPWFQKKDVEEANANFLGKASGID
# T1 sequence (P16068 1-619): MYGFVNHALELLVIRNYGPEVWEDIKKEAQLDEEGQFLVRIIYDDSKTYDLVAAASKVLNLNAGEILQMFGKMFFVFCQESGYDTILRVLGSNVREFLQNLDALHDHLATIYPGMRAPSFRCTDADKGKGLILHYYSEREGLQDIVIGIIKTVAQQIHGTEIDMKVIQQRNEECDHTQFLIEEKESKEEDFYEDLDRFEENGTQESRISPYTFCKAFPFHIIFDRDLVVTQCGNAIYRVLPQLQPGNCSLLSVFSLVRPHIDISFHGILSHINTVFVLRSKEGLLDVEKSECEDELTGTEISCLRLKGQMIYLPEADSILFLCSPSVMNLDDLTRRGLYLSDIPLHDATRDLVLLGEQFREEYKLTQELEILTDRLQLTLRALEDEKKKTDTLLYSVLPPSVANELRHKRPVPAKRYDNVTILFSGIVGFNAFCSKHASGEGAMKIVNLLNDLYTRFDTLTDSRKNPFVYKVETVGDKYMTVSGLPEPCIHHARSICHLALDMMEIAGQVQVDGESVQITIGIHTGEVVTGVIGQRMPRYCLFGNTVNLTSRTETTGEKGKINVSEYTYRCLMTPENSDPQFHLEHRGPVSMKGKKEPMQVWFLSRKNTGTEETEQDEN
# Test: Activation of soluble guanylate cyclase (cGMP enzyme immunoassay)
# Assay type: biochemical
# Conditions: test substance 50 μM; sGC isolated from bovine lung; [cGMP]test substance/[cGMP]control (basal activity with solvent); 37° C., 15 to 20 minutes
# Protocol: The activation of soluble guanylate cyclase (sGC), which catalyzes the conversion of guanosine triphosphate (GTP) to cyclic guanosine monophosphate (cGMP) and pyrophosphate, by the compounds according to the invention was quantified with the aid of an enzyme immunoassay (EIA) from Amersham. For this, the test substances were first incubated with sGC in microtiter plates and then the quantity of the resulting cGMP was determined.
# The sGC employed had been isolated from bovine lung (see Methods in Enzymology, Volume 195, p. 377). The test solutions (100 μl per well) contained 50 mM triethanolamine (TEA) buffer (pH 7.5), 3 mM MgCl2, 3 mM reduced glutathione (GSH), 0.1 mM GTP, 1 mM 3-isobutyl-1-methylxanthine (IBMX), suitably diluted enzyme solution and the test substance or, in the control experiments, solvent. The test substances were dissolved in dimethyl sulfoxide (DMSO) and the solution was diluted with DMSO/water such that the final concentration c of test substance in the test batch was 50 μM. The DMSO concentration in the test batch was 5% (v/v). The reaction was started by addition of the sGC. The reaction mix was incubated at 37° C. for 15 to 20 minutes and then stopped by ice-cooling and addition of the stop reagent (50 mM EDTA, pH 8.0). An aliquot of 50 μl was taken and employed for the determination of the cGMP content using the acetylation protocol of the Amersham cGMP EIA kit. The absorption of the samples was measured at 450 nm (reference wavelength 620 nm) in a microtiter plate reading apparatus. The cGMP concentration was determined by means of a calibration curve, which was obtained under the same experimental conditions. The activation of the sGC by a test substance is indicated as n-fold stimulation of the basal enzyme activity which was found in the control experiments (with solvent instead of test substance) (calculated according to the formula n-fold stimulation=[cGMP]test substance/[cGMP]control).
row,Compound,n-fold stimulation at c = 50 μM
1,Cc1ccc(-c2nc(C(C)C)cc(N3CCC(C(N)=O)CC3)n2)cc1 [Example 99],>4 n-fold
2,Clc1ccc(-c2nc(-c3ccccc3)cc(N3CCCCCC3)n2)cc1 [Example 112],>8 n-fold
3,Cc1ccc(-c2nc(C(C)C)cc(N3CCOCC3)n2)cc1 [Example 89],>8 n-fold
4,CC(C)c1cc(N2CCCC2)nc(-c2ccc(Cl)cc2)n1.Cl [Example 29],>4 n-fold
5,CC(C)c1cc(N2CCSCC2)nc(-c2cc(Cl)cc(Cl)c2)n1 [Example 82],>4 n-fold
6,CC(C)c1cc(N2CCSCC2)nc(-c2ccc(Cl)cc2)n1.Cl [Example 30],>4 n-fold
7,CC(C)c1cc(NCCCCO)nc(-c2ccc(Cl)cc2)n1 [Example 137],>16 n-fold
8,CC(C)c1cc(N2CCCCCC2)nc(-c2ccc(Cl)cc2)n1 [Example 38],>8 n-fold
9,COCCN(CCOC)c1cc(C(C)C)nc(-c2ccc(C)cc2)n1 [Example 98],>8 n-fold
10,CC(C)c1cc(N2CCOCC2)nc(-c2cc(Cl)cc(Cl)c2)n1 [Example 81],>4 n-fold
11,CCN(CC)c1cc(C(C)C)nc(-c2ccc(Cl)cc2)n1 [Example 33],>16 n-fold
12,CCCCNc1cc(C(C)C)nc(-c2ccc(C)cc2)n1 [Example 88],>8 n-fold
13,C=CCN(CC=C)c1cc(C(C)C)nc(-c2ccc(Cl)cc2)n1 [Example 36],>8 n-fold
14,Cc1ccc(-c2nc(C(C)C)cc(N3C[C@@H](C)O[C@@H](C)C3)n2)cc1 [Example 97],>16 n-fold
15,CCN(CC)c1cc(C(C)C)nc(-c2cc(Cl)cc(Cl)c2)n1 [Example 80],>16 n-fold
16,CC(C)c1cc(N[C@H]2CC[C@H](O)CC2)nc(-c2ccc(Cl)cc2)n1 [Example 125],32 n-fold
17,Cc1ccc(-c2nc(C(C)C)cc(N3CCSCC3)n2)cc1 [Example 90],>16 n-fold
18,CCCN(CCC)c1cc(-c2ccccc2)nc(-c2ccc(Cl)cc2)n1 [Example 69],>4 n-fold
19,CC(C)c1cc(NC2CCC(O)CC2)nc(-c2cc(Cl)cc(Cl)c2)n1 (stereo not drawn) [Example 77],30 n-fold

row,Compound,n-fold stimulation at c = 50 μM
1,CC(C)(C)c1cc(N[C@H]2CC[C@H](O)CC2)nc(-c2ccc(Cl)cc2)n1 [Example 133],>16 n-fold
2,CCN(CC)c1cc(-c2ccccc2)nc(-c2ccc(Cl)cc2)n1 [Example 63],>4 n-fold
3,CC(C)c1cc(NC2CCCC2)nc(-c2ccc(Cl)cc2)n1 [Example 124],>16 n-fold
4,Cc1ccc(-c2nc(NC3CCC(O)CC3)cc(C(C)C)n2)cc1 (stereo not drawn) [Example 25],28 n-fold
5,CCCN(CCC)c1cc(C(C)C)nc(-c2ccc(Cl)cc2)n1.Cl [Example 35],>16 n-fold
6,CC(C)c1cc(N2CCSC2)nc(-c2ccc(Cl)cc2)n1 [Example 45],>4 n-fold
7,Cc1ccc(-c2nc(C(C)C)cc(N3CCCCCC3)n2)cc1 [Example 100],>8 n-fold
8,CCN(Cc1ccccc1)c1cc(C(C)C)nc(-c2ccc(Cl)cc2)n1 [Example 43],>4 n-fold
9,CC(C)(C)c1cc(N2CCOCC2)nc(-c2ccc(Cl)cc2)n1 [Example 52],>8 n-fold
10,CC(C)c1cc(N2CCC(C(N)=O)CC2)nc(-c2ccc(Cl)cc2)n1 [Example 44],>4 n-fold
11,COCCCNc1cc(C(C)C)nc(-c2ccc(C)cc2)n1 [Example 23],>8 n-fold
12,CCN(CC)c1cc(C(C)C)nc(-c2ccc(C)cc2)n1.Cl [Example 86],>16 n-fold
13,CC(C)(C)c1cc(N2CCSCC2)nc(-c2ccc(Cl)cc2)n1 [Example 66],>4 n-fold
14,CCCN(CCC)c1cc(C(C)C)nc(-c2ccc(C)cc2)n1 [Example 85],>16 n-fold
15,CCCCNc1cc(C(C)C)nc(-c2cc(Cl)cc(Cl)c2)n1.Cl [Example 79],>4 n-fold
16,CCCCN(CCCC)c1cc(C(C)C)nc(-c2ccc(Cl)cc2)n1.Cl [Example 34],>4 n-fold
17,CCCCNc1cc(C(C)C)nc(-c2ccc(Cl)cc2)n1 [Example 32],>4 n-fold
18,CCCN(CCC)c1cc(C(C)C)nc(-c2cc(Cl)cc(Cl)c2)n1 [Example 84],>16 n-fold
